In patent US20220162221A1, “Imaging Agents” (UCB Biopharma SRL, priority 2017, published 2022):
Values belong to the molecule of their own block, whether it stands above or below them.

Experiments:
[1] = target: hD1R in SK-N-MC cells (Homo sapiens, UniProt P21728); experiment: cAMP HTRF D1 functional assay; conditions: for Erel: relative efficacy compared to dopamine maximum response, SK-N-MC cells
Experimental: The reaction was terminated by consecutive additions of 10 μL d2 detection reagent and the cryptate reagent both diluted in lysis buffer. After a period of 60 min at room temperature, changes in HTRF emission ratio were determined and transformed in [cAMP]i using a standard curve.

[2] = test system: D1 receptor; experiment: In vivo PET imaging in cynomolgus monkey
Experimental: Experiment was performed in a cynomolgus monkey (Female, body weight 6.02 kg). The monkeys were sedated using intramuscular injection of ketamine and kept anesthetized using a mixture of sevoflurane, oxygen and medical air for the duration of the experiment. A baseline scan was performed following intravenous administration of 141 MBq of (−)-(Ia) at a specific activity of 795 GBq/μmol and PET images of the brain were acquired using the Siemens HRRT PET scanner (Siemens Preclinical Solutions, Knoxville, Tenn.).
(§1) Data were acquired for 123 min and binned into sinograms with the following frame timing: 9×20 sec; 3×1 min; 5×3 min; and 17×6 min. Regions of interest used in this study were caudate nucleus, putamen, cerebellum, frontal cortex, occipital cortex, globus pallidus, midbrain, ventral striatum, thalamus and temporal cortex. Registration parameters were obtained to apply the regions of interests to the PET scan and regional time-activity curves (TACs) were generated. Venous blood samples were withdrawn at 4, 15, 30, 60, 90, 120 minutes after (−)-(Ie) administration for metabolite analysis.

[3] = target: T1, D1 receptor (Macaca mulatta, UniProt O77680); experiment: Autoradiography on NHP brain slices; assay type: binding
T1 construct: 12 μm brain slices were prepared from fresh frozen NHP brain hemisphere; tissue Motac (Bordeaux, France); host or cells: Macaca mulatta brain sections (caudate putamen)
Experimental: Brain sections from non-human primate (NHP) Macaca mulatta were provided by Motac (Bordeaux, France) where all animal experiments were performed in accordance with european animal use ethical guidance and legislation.
12 μm brain slices were prepared from fresh frozen NHP brain hemisphere and were placed on glass microscopy slide. Autoradiography experiment was performed at room temperature in HBSS HEPES buffer (pH 7.4). NHP brain sections first equilibrated for 30 min before to be incubated for one hour with [^3H]compound in 1% DMSO. Slides were then washed in iced-cold 50 mM Tris-HCl buffer (pH 7.4) for 5 min followed by two washes in iced-cold distilled water. Sections were dried under atmospheric pressure at room temperature. Radioactivity on slice was either measured indirectly after exposure of slides to a phosphor screen, either using a direct counter. In every autoradiography experiments, a [^3H]standard was included for quantification and the NSB was defined as the residual binding of [^3H]compound observed in the presence of 10 μM non-labeled compound.

[4] = target: human D1R (Homo sapiens, UniProt P21728); experiment: Radioligand binding on HEK hD1R membranes with or without D1 PAM; set-up: expressed in transfected cells; host or cells: HEK cells, transient transfection, pcDNA3.1; membrane preparation
Experimental: Transient transfection of human dopamine D1R was performed with pcDNA3.1 vector in human embryonic kidney cells (HEK hD1R).
The membrane of HEK hD1R cells were used to measure radioligand binding. 48 hours post transfection, cells were pelleted by centrifugation at 1,500 g and 4° C. for 10 min. Pellet was washed once with ice-cold phosphate buffered saline solution (PBS) and centrifuged as described just above. Pellet was homogenized in a buffer containing 15 mM Tris-HCl, 0.3 mM ethylene diamine tetraacetic acid, 1 mM ethylene glycol tetraacetic acid, 2 mM MgCl2 (pH 7.5) and complemented with protease inhibitor cocktail. The homogenate was freeze-thawed twice and equilibrated at 25° C. followed by a 10 min DNAse (10 U/ml) treatment. Subsequently, the solution was centrifuged at 40,000 g and 4° C. for 30 min. Finally, the pellet was resuspended in 20 mM Tris-HCl buffer (pH 7.4) containing 250 mM sucrose and store at −80° C. until D1 radioligand binding assay. […] At the end of the incubation period, the protein-bound radioligand was recovered by filtration through pre-soaked GF/B glass fiber filters. Filters were washed with at least 4 times the assay volume of ice-cold 50 mM Tris-HCl buffer (pH 7.4). […] The filters were dried and the radioactivity determined by liquid scintillation.
Competition/potentiation binding experiments were carried out at constant (−)-(Ic) concentration (1-4 nM) and 10 increasing concentrations of (−)-(Ic) or compound b (10^−10 M to 10^−5 M).

[5] = Metabolite profile by radio-HPLC of venous blood samples; assay type: in vivo, cynomolgus monkey; conditions: for metabolites detected (words): venous blood, radio-HPLC
Experimental: as §1
The profile of metabolites of (−)-Ia was determined by radio-HPLC analysis of the venous blood samples collected post-administration at several timepoints. The parent fraction in plasma is 85% at 15 minutes, 60% at 30 minutes and still about 45% at 60 minutes.

[6] = test system: D1 receptor; experiment: In vivo potentiation PET imaging with D1 PAM; set-up: species or system cynomolgus monkeys (Macaca fascicularis); conditions: FIG. 5, Compound-B 20 mg/kg
Experimental: Two cynomolgus monkeys (Macaca fascicularis) housed at the MPI Research (Mattawan, Mich.), were used as research subjects for the in vivo potentiation PET studies.
Each animal was anesthetized with propofol iv bolus (2.5-5.0 mk/kg) and maintained with propofol iv Continuous Rate Infusion (CRI, 0.1-0.6 mg/kg/min). for at least 30 minutes prior to initiation of Compound-B i.v. dose administration. Several dose levels were administered. […]
Following Compound (−)-Ib administration, arterial blood samples were drawn from the central iliac artery prior to the dosing with Compound (−)-Ib and at 13 time points up to 120 min post-injection of Compound (−)-Ib. All blood samples were collected in anticoagulant tubes and stored on wet ice until quantification for radioactivity by gamma counter, measure of Compound (−)-Ib parent fraction in plasma over time by HPLC and Compound (−)-Ib ex vivo stability in blood.
Reconstructed dynamic brain PET images were transferred and analyzed using the image processing PMOD software package (PMOD Technologies, Zurich, Switzerland). […] Subsequent PET images acquired during drug studies were aligned first to the baseline images and then transformed into the common MR template space using the already calculated transformation from the baseline images. […]

[7] = saturation binding, 10 μM D1 PAM, HEK hD1R membranes (FIG. 3B)
[8] = Logan reference tissue model, cerebellum as reference

human D1R, sequence (P21728 whole entry): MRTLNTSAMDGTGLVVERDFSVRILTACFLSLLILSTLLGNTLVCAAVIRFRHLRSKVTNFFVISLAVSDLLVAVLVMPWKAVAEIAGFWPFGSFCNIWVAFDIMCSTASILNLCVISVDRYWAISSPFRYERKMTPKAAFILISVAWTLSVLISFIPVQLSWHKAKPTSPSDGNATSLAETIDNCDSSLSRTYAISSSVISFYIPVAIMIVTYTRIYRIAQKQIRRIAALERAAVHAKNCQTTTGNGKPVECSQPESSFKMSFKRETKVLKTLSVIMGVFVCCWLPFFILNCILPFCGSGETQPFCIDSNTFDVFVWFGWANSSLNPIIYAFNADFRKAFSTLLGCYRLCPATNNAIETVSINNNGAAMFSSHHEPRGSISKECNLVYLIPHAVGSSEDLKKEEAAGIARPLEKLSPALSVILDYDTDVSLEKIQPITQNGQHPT
hD1R in SK-N-MC cells, sequence (P21728 whole entry): as above
T1 sequence (O77680 whole entry): as the sequence (P21728 whole entry) above, with N311I counted along it

Molecule: Cc1c(-c2ccc(Oc3nccc4occc34)cc2CF)n(C)c(=O)[nH]c1=O (single isomer, unassigned) [(−)-(Ia), [^11C]-6-(2-(fluoromethyl)-4-(furo[3,2-c]pyridin-4-yloxy)phenyl)-1,5-dimethylpyrimidine-2,4(1H,3H)-dione]
brain uptake pattern ([2]; PET images, summed SUV 33-63 minutes): uptake pattern consistent with the reported distribution of D1-like receptors in the brain

Molecule: [^3H]-6-(2-(fluoromethyl)-4-(furo[3,2-c]pyridin-4-yloxy)phenyl)-1,5-dimethylpyrimidine-2,4(1H,3H)-dione [(−)-(Ic)]
specific binding in the presence of a D1 PAM ([3]; NHP brain slices, FIG. 4): significantly increased | Total Binding in caudate putamen (words) ([3]; NHP brain slices, listed as (Ic)): significantly binds in caudate putamen | Total Binding in caudate putamen (words) ([3]; NHP brain slices, listed as (−)-Ic): significant binding | non specific binding ([3]; in the presence of 10 μM compound (I), caudate putamen): 20% | effect of D1 PAM on radioligand binding ([4]; HEK hD1R membranes (FIG. 3)): significantly improved binding properties | potentiation of radioligand binding by D1 PAM ([4]; low nanomolar radioligand concentration (1-4 nM), FIG. 3C): > 50% | decrease of KD by D1 PAM [4, 7]: 20% | increase of Bmax by D1 PAM [4, 7]: 45%

Molecule: Cc1c(-c2ccc(Oc3nccc4occc34)cc2C[18F])n(C)c(=O)[nH]c1=O [(−)-(Ib), [^18]-6-(2-(fluoromethyl)-4-(furo[3,2-c]pyridin-4-yloxy)phenyl)-1,5-dimethylpyrimidine-2,4(1H,3H)-dione]
effect of D1 PAM on tracer binding/uptake in vivo (words) [6]: significantly improved binding properties | effect of D1 PAM on tracer binding/uptake in vivo (words) ([6]; listed as (−)-Ib): increased uptake

Second part, led by results:

EC50 [1]: 5.01 nM | agonist-like effect on D1 receptor ([1]; cAMP HTRF): D1 partial agonist-like effect | Erel [1]: 53 ± 13% | Erel ([1]; listed as (−)-I): 53%
Molecule: Cc1c(-c2ccc(Oc3nccc4occc34)cc2CF)n(C)c(=O)[nH]c1=O (single isomer, unassigned) [Compound (−)-(I), 6-(2-(fluoromethyl)-4-(furo[3,2-c]pyridin-4-yloxy)phenyl)-1,5-dimethylpyrimidine-2,4(1H,3H)-dione]

peak uptake SUV ([2]; 5-10 minutes post-administration, across brain regions, iv): 3.5-4 | SUV in caudate and putamen ([2]; at 60 minutes): about 2 | SUV in cerebellum ([2]; at 60 minutes): about 1 | parent fraction in plasma ([5]; at 15 minutes): 85% | parent fraction in plasma ([5]; at 30 minutes): 60% | parent fraction in plasma ([5]; at 60 minutes): about 45% | metabolites detected (words) ([5]; listed as (Ia)): no associated lipophilic metabolite
Molecule: Cc1c(-c2ccc(Oc3nccc4occc34)cc2CF)n([11CH3])c(=O)[nH]c1=O (single isomer, unassigned) [(−)-(Ia), [^11C]-6-(2-(fluoromethyl)-4-(furo[3,2-c]pyridin-4-yloxy)phenyl)-1,5-dimethylpyrimidine-2,4(1H,3H)-dione]
binding potential (BPND), caudate [2, 8]: 0.94 | binding potential (BPND), putamen [2, 8]: 0.87 | metabolites detected (words) ([5]; listed as (−)-Ia): only hydrophilic metabolites unlikely to cross the blood-brain barrier have been detected
